Test results taken from ChEMBL document CHEMBL1201862, “PubChem BioAssay data set” (2004).
Each block holds one compound with its values, some of them ahead of it. The source made the active and inactive calls.

Columns and labels:
[1] = target: Cytochrome P450 2D6 (Homo sapiens, UniProt P10635);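 further: CYP2D6 member of a cytochrome P450 panel assay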
[2] = target: Dual specificity tyrosine-phosphorylation-regulated kinase 1A (Rattus norvegicus, UniProt Q63470); assay type: biochemical, Homo sapiens
[3] = decrease of insulin promoter-GFP reporter – imaging, high-content screening, mouse beta cells (AID 1628); assay type: functional; settings: MIN6
[4] = MIN6 cell viability loss – mouse insulinoma, cytotoxicity control, dose response (AID 2122); assay type: functional;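 further: confirmatory high-throughput counterscreen run to flag cytotoxic compounds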
[5] = target: T1, Heat shock factor protein 1 (Mus musculus, UniProt P38532); test: decrease of HSF1-responsive luciferase luminescence – cell-based, NIH3T3, dose retest, confirmation (AID 2382); assay type: functional;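 further: NIH3T3 fibroblasts with HSF1-driven luciferase reporter stressed by proteasome inhibitor MG132; luminescence from HSF1-driven luciferase expression after 8 hours of MG132 stress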
T1 sequence (P38532 whole entry): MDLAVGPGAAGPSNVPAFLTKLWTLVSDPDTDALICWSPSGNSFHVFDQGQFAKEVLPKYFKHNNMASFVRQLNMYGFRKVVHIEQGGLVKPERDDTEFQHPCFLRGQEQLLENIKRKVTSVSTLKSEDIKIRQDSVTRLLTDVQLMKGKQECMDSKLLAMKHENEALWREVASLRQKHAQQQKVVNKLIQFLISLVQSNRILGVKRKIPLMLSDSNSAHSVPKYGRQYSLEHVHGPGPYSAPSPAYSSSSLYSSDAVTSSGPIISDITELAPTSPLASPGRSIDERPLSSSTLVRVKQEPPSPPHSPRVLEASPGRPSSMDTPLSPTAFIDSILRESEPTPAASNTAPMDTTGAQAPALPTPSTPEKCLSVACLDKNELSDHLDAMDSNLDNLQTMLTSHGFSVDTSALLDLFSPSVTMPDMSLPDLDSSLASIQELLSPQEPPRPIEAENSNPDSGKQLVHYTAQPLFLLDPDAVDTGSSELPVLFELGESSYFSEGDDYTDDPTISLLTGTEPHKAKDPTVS

[6] = system: INS1; test: INS-1E survival protection against cytokine death – cell-based, luminescence, retest, dose response (AID 449756); assay type: functional; settings: Rattus norvegicus;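 further: cell death triggered by IL-1 beta plus TNF-alpha plus IFN-gamma mixture; protective hits raise ATP signal compared with cytokine alone wells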
[7] = target: T2, RNA-binding protein pos-1 (Caenorhabditis elegans, UniProt G5EF15); test: disruptors of C. elegans POS-1 RNA interaction – biochemical, fluorescence polarization, dose response (AID 1964);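 further: purified POS-1 fused to maltose binding protein made in E. coli; potency of compounds blocking POS-1 binding to fluorescent RNA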
T2 sequence (G5EF15 whole entry): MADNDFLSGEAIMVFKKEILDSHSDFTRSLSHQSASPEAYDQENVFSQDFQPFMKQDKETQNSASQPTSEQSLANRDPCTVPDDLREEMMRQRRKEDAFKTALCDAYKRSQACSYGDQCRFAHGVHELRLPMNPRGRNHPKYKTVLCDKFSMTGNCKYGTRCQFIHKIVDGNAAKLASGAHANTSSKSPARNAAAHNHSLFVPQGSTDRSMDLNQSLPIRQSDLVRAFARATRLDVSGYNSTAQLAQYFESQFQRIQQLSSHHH

[8] = target: T3, Zinc finger protein mex-5 (Caenorhabditis elegans, UniProt Q9XUB2); test: potency of MEX-5 RNA-binding blockers – biochemical, C. elegans, fluorescence polarization, dose response (AID 1960)
T3 sequence (Q9XUB2 whole entry): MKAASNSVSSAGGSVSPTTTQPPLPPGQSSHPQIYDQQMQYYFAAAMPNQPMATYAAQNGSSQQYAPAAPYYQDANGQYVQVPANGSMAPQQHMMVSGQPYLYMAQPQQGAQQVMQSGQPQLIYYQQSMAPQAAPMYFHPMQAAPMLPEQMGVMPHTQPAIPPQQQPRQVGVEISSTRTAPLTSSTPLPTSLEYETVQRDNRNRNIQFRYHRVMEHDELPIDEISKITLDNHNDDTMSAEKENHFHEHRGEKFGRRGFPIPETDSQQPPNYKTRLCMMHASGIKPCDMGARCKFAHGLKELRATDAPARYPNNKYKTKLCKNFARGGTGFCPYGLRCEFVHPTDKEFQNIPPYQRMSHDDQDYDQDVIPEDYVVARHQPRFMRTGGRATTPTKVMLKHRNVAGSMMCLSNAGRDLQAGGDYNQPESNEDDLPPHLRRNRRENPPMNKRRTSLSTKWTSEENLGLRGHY

[9] = target: Keap1/Nrf2 (Homo sapiens, UniProt Q14145); test: disruptors of Keap1 binding to Nrf2 peptide – biochemical, fluorescence polarization, cherry-picked samples, dose response (AID 588683)
Sequence of Keap1/Nrf2 (Q16236 whole entry): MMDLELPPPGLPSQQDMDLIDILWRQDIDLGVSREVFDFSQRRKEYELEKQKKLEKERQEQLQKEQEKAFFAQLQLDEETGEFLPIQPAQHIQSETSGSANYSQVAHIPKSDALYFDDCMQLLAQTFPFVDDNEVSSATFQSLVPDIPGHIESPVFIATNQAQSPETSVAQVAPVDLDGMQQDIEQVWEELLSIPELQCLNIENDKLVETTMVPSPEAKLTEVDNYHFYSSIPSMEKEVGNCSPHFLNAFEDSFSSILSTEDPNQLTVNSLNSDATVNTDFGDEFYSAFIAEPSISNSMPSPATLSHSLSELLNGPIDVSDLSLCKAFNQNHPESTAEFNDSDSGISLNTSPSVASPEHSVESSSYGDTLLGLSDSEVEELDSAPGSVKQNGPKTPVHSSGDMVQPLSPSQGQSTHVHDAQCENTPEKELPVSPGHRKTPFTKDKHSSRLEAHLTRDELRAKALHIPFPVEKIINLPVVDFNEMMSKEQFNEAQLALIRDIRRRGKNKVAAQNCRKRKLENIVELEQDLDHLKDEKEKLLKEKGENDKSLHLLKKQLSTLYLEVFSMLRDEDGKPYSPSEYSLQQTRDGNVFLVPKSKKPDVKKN
Sequence of Keap1/Nrf2 (Q14145 whole entry): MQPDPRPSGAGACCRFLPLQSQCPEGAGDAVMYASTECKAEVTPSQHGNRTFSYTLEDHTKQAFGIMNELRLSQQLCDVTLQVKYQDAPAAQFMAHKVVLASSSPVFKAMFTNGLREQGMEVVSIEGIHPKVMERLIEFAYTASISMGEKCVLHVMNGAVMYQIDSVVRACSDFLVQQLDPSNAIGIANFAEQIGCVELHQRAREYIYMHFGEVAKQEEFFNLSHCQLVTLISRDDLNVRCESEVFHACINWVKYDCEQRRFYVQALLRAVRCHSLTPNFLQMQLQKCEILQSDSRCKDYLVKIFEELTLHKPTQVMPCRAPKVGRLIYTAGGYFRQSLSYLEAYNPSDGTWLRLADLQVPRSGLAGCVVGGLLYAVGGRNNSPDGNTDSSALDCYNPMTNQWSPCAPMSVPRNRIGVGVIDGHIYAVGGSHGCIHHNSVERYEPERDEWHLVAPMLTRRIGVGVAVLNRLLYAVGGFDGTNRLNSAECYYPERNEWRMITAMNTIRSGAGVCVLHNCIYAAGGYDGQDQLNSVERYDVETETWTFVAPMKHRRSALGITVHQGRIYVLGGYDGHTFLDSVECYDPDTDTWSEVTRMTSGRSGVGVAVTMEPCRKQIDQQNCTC

[10] = target: T4, Ubiquitin-conjugating enzyme E2 N (Homo sapiens, UniProt P61088); assay type: functional;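 further: Dose-response confirmation in a TR-FRET assay detecting UBC13-driven polyubiquitin chain formation, inhibition measured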
T4 sequence (P61088 whole entry): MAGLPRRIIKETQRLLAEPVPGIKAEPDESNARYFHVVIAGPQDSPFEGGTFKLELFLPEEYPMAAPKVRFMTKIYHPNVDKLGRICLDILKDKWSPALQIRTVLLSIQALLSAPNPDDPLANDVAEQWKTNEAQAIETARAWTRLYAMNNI

[11] = target: T5, Microphthalmia-associated transcription factor (Homo sapiens, UniProt O75030); test: reducers of TRPM1 reporter luminescence, concentration series – cell-based, SK-MEL-5, cherry-picked, set 3, MITF inhibitor project, dose response (AID 493073); assay type: functional;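 further: SK-MEL-5 melanoma cells with luciferase driven by the MITF target TRPM1 promoter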
T5 sequence (O75030 whole entry): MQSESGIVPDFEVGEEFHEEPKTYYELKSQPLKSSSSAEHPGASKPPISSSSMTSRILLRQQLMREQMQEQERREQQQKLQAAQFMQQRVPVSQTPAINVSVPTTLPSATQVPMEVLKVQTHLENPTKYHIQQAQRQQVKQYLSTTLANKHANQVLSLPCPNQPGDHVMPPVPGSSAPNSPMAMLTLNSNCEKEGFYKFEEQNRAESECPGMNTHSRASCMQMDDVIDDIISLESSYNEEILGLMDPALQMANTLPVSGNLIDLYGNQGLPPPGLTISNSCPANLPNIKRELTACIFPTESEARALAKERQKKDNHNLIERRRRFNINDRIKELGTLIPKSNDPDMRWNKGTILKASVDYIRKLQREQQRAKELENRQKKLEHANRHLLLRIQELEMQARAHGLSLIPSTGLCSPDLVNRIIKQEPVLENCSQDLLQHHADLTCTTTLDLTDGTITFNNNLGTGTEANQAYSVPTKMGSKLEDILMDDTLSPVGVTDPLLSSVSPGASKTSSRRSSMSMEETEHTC

[12] = system: H9c2; test: cells; assay type: functional, cell-based; settings: Rattus norvegicus, H9c2, Myocardium;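 further: confirmatory concentration-response retest of ultra-high-throughput screening hits for modulation of myocardial damage; cell death induced by hydrogen peroxide oxidative stress; compound pretreatment for 60 min then peroxide exposure for 2 h; potency is for protecting the cells against peroxide damage rather than for killing them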
[13] = system: A-375; test: proliferation inhibition in MITF-low A375 cells – cell-based, cherry-pick samples, set 2, counter-screen for MITF modulator project, dose response (AID 540335); assay type: functional; settings: Homo sapiens
[14] = reduction of Shn3 3'UTR-driven luciferase in osteoblasts – cell-based, Clone20 osteoblasts, firefly luciferase, cherry-picked, dose response (AID 624132); assay type: functional;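 further: firefly luciferase luminescence from reporter carrying the Shn3 3'UTR in osteoblasts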
[15] = loss of viability in HepG2 cells – cell-based, CellTiter-Glo, cherry-picked, cytotoxicity control for Shn3 inhibitor project, dose response (AID 624134); assay type: functional
[16] = non-specific 3'UTR reporter inhibition in Clone20-Shn3RL – cell-based, Renilla luciferase, cherry-picked, counter-screen for Shn3 inhibitor project, dose response (AID 624133); assay type: functional

Sequence of Cytochrome P450 2D6 (P10635 whole entry): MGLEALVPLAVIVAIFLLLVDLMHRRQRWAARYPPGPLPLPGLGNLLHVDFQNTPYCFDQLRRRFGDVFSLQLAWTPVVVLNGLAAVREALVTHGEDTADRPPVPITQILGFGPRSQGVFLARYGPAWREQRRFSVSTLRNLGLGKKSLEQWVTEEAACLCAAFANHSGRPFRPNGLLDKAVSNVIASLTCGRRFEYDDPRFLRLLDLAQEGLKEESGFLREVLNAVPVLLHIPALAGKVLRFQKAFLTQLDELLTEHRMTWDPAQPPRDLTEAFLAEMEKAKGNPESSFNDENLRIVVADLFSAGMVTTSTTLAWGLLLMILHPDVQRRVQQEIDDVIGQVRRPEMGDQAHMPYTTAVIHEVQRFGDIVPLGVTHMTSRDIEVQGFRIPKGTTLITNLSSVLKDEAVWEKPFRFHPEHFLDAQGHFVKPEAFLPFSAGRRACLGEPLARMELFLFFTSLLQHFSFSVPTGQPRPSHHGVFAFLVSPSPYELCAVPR

Compound: c1ccc(C2OCC3(CO2)COC(c2ccccc2)OC3)cc1 (stereo not drawn)
AC50 [1]: inconclusive

Compound: O=C(O)c1nn(-c2ccccc2-c2nnc(O)nc2O)c(=O)[nH]c1=O
AC50 [1]: inconclusive

Compound: Cc1ccc(Cn2c(=N)n(CC(=O)c3ccccc3)c3ccccc32)cc1
IC50 [3]: 1.8 µM (active)
IC50 [4]: 1.86 µM (active)
EC50 [5]: > 195 µM (not active)
AC50 [6]: 7.43 µM (active)

Compound: CC(Oc1cccc(Br)c1)C(=O)NNC(=O)c1ccccn1 (stereo not drawn)
IC50 [10]: > 20 µM (inactive)
AC50 [11]: 7.18 µM (active)
IC50 [12]: > 79 µM (inactive)
AC50 [13]: 41.2 µM (active)
AC50 [14]: 3.36 µM (active)
AC50 [15]: 49.4 µM (active)
AC50 [16]: 3.19 µM (active)

Compound: COc1cc(N2CN=c3s/c(=C\c4ccccn4)c(=O)n3C2)cc(OC)c1OC
AC50 [2]: 3.08 µM (active)

Second part, the compound after the results:

AC50 [2]: 7.77 µM (active)
Compound: O=C(Cc1c(F)cccc1Cl)Nc1nc2ccccc2s1

EC50 [7]: 158 µM (inconclusive)
EC50 [8]: 177 µM (inconclusive)
AC50 [9]: > 52 µM (inactive)
Compound: CCCCOc1ccc(/C=C2/Sc3ccccc3C2=O)cc1
